tested on: Endogenous Huntingtin Protein (HTT); test: Endogenous Huntingtin Protein Assay (ELISA-based MSD electrochemiluminescence); assay type: cell-based; conditions: Table 1
Description: Compounds of Formula (I) were tested using the Meso Scale Discovery (MSD) Assay provided in International Application No. PCT/US2016/066042, filed on Dec. 11, 2016 and claiming priority to U.S. Provisional Application 62/265,652 filed on Dec. 10, 2015, published as International Publication No. WO 2017/100726 on Jun. 15, 2017, the entire contents of which are incorporated herein by reference.
The Endogenous Huntingtin Protein assay used in Example 1 was developed using the ELISA-based MSD electrochemiluminescence assay platform.
Endogenous Huntingtin Protein Assay
Meso Scale Discovery (MSD) 96-well or 384-well plates were coated overnight at 4° C. with MW1 (expanded polyglutamine) or MAB2166 monoclonal antibody (for capture) at a concentration of 1 μg/mL in PBS (30 μL per well). Plates were then washed three times with 300 µL wash buffer (0.05% Tween-20 in PBS) and blocked (100 μL blocking buffer; 5% BSA in PBS) for 4-5 hours at room temperature with rotational shaking and then washed three times with wash buffer.
Samples (25 μL) were transferred to the antibody-coated MSD plate and incubated overnight at 4° C. After removal of the lysates, the plate was washed three times with wash buffer, and 25 μL of #5656S (Cell signaling; rabbit monoclonal) secondary antibody (diluted to 0.25 μg/mL in 0.05% Tween-20 in blocking buffer) was added to each well and incubated with shaking for 1 Hour at room temperature. Following incubation with the secondary antibody, the wells were rinsed with wash buffer after which 25 μL of goat anti-rabbit SULFO TAG secondary detection antibody (required aspect of the MSD system) (diluted to 0.25 μg/mL in 0.05% Tween-20 in blocking buffer) was added to each well and incubated with shaking for 1 hour at room temperature. After rinsing three times with wash buffer, 150 μL of read buffer T with surfactant (MSD) were added to each empty well, and the plate was imaged on a SI 6000 imager (MSD) according to manufacturers' instructions provided for 96- or 384-well plates.

Compared with `Cc1ccc2nc(-c3cc(=O)n4cc(N5CCNCC5)ccc4n3)cn2c1` [compound 29, 2-(6-methylimidazo[1,2-a]pyridin-2-yl)-7-(piperazin-1-yl)-4H-pyrido[1,2-a]pyrimidin-4-one], `Cc1cn2cc(-c3cc(=O)n4cc(N5CCNCC5)ccc4n3)nc2cn1` [compound 74, 2-(6-methylimidazo[1,2-a]pyrazin-2-yl)-7-(piperazin-1-yl)-4H-pyrido[1,2-a]pyrimidin-4-one] is lower in IC50: 3000 to 33000 nM for the first, 1000 to 3000 nM for the second.

`COc1ccc(-c2cc(=O)n3cc(N4CCNCC4)ccc3n2)cc1F` [compound 72, 2-(3-fluoro-4-methoxyphenyl)-7-(piperazin-1-yl)-4H-pyrido[1,2-a]pyrimidin-4-one] and `COc1ccc(-c2cc(=O)n3cc(N4CCNCC4)ccc3n2)cn1` [compound 88, 2-(6-methoxypyridin-3-yl)-7-(piperazin-1-yl)-4H-pyrido[1,2-a]pyrimidin-4-one] fall in the same range of IC50: 3000 to 33000 nM for the first, 3000 to 33000 nM for the second.

First: Cc1cn2cc(-c3cc(=O)n4cc(N5CCN[C@@H](C)C5)ccc4n3)nc2cn1 [compound 75, 2-(6-methylimidazo[1,2-a]pyrazin-2-yl)-7-[(3S)-3-methylpiperazin-1-yl]-4H-pyrido[1,2-a]pyrimidin-4-one]
Second: Cc1cn2nc(-c3cc(=O)n4cc(N5CCN[C@@H](C)C5)ccc4n3)cc2c(C)n1 [compound 121, 2-(4,6-dimethylpyrazolo[1,5-a]pyrazin-2-yl)-7-[(3S)-3-methylpiperazin-1-yl]-4H-pyrido[1,2-a]pyrimidin-4-one]
The IC50 of the first is lower: 1000 to 3000 nM for the first, 3000 to 33000 nM for the second.

`O=c1cc(-c2cncc(Cl)c2)nc2ccc(N3CCNCC3)cn12` [compound 94, 2-(5-chloropyridin-3-yl)-7-(piperazin-1-yl)-4H-pyrido[1,2-a]pyrimidin-4-one] and `COc1ncc(-c2cc(=O)n3cc(N4CCNCC4)ccc3n2)cc1Cl` [compound 96, 2-(5-chloro-6-methoxypyridin-3-yl)-7-(piperazin-1-yl)-4H-pyrido[1,2-a]pyrimidin-4-one] fall in the same range of IC50: 3000 to 33000 nM for the first, 3000 to 33000 nM for the second.

`O=c1cc(-c2ccn3ccnc3c2)nc2ccc(N3CCNCC3)cn12` [compound 107, 2-(imidazo[1,2-a]pyridin-7-yl)-7-(piperazin-1-yl)-4H-pyrido[1,2-a]pyrimidin-4-one] and `O=c1cc(-c2ccc3nccn3c2)nc2ccc(N3CCNCC3)cn12` [compound 108, 2-(imidazo[1,2-a]pyridin-6-yl)-7-(piperazin-1-yl)-4H-pyrido[1,2-a]pyrimidin-4-one] fall in the same range of IC50: 3000 to 33000 nM for the first, 3000 to 33000 nM for the second.

First: Cc1cn2cc(-c3cc(=O)n4cc(N5CCNCC5)ccc4n3)ccc2n1 [compound 109, 2-(2-methylimidazo[1,2-a]pyridin-6-yl)-7-(piperazin-1-yl)-4H-pyrido[1,2-a]pyrimidin-4-one]
Second: CCc1cn2cc(-c3cc(=O)n4cc(N5CCNCC5)ccc4n3)ccc2n1 [compound 124, 2-(2-ethylimidazo[1,2-a]pyridin-6-yl)-7-(piperazin-1-yl)-4H-pyrido[1,2-a]pyrimidin-4-one]
The IC50 of the first is lower: 1000 to 3000 nM for the first, 3000 to 33000 nM for the second.

`Cc1cn2cc(-c3cc(=O)n4cc(N5CCN(C)CC5)ccc4n3)ccc2n1` [compound 114, 2-(2-methylimidazo[1,2-a]pyridin-6-yl)-7-(4-methylpiperazin-1-yl)-4H-pyrido[1,2-a]pyrimidin-4-one] and `Cc1cn2nc(-c3cc(=O)n4cc(N5CCN(C)CC5)ccc4n3)cc2c(C)n1` [compound 170, 2-(4,6-dimethylpyrazolo[1,5-a]pyrazin-2-yl)-7-(4-methylpiperazin-1-yl)-4H-pyrido[1,2-a]pyrimidin-4-one] fall in the same range of IC50: 3000 to 33000 nM for the first, 3000 to 33000 nM for the second.

First: Cc1cn2cc(-c3cc(=O)n4cc(N5CCNCC5)ccc4n3)nc2c(C)n1 [compound 118, 2-(6,8-dimethylimidazo[1,2-a]pyrazin-2-yl)-7-(piperazin-1-yl)-4H-pyrido[1,2-a]pyrimidin-4-one]
Second: Cc1cn2nc(-c3cc(=O)n4cc(N5CCNCC5)ccc4n3)cc2c(C)n1 [compound 120, 2-(4,6-dimethylpyrazolo[1,5-a]pyrazin-2-yl)-7-(piperazin-1-yl)-4H-pyrido[1,2-a]pyrimidin-4-one]
The IC50 of the first is higher: 3000 to 33000 nM for the first, 1000 to 3000 nM for the second.

`O=c1cc(-c2ccc3nc(C(F)(F)F)cn3c2)nc2ccc(N3CCNCC3)cn12` [compound 123, 7-(piperazin-1-yl)-2-[2-(trifluoromethyl)imidazo[1,2-a]pyridin-6-yl]-4H-pyrido[1,2-a]pyrimidin-4-one] and `Cc1nc2ccc(-c3cc(=O)n4cc(N5CCNCC5)ccc4n3)cn2c1C` [compound 125, 2-(2,3-dimethylimidazo[1,2-a]pyridin-6-yl)-7-(piperazin-1-yl)-4H-pyrido[1,2-a]pyrimidin-4-one] fall in the same range of IC50: 3000 to 33000 nM for the first, 3000 to 33000 nM for the second.

`O=c1cc(-c2cnc3[nH]ccc3c2)nc2ccc(N3CCNCC3)cn12` [compound 128, 7-(piperazin-1-yl)-2-(1H-pyrrolo[2,3-b]pyridin-5-yl)-4H-pyrido[1,2-a]pyrimidin-4-one] and `Cn1ccc2cc(-c3cc(=O)n4cc(N5CCNCC5)ccc4n3)cnc21` [compound 129, 2-(1-methyl-1H-pyrrolo[2,3-b]pyridin-5-yl)-7-(piperazin-1-yl)-4H-pyrido[1,2-a]pyrimidin-4-one] fall in the same range of IC50: 3000 to 33000 nM for the first, 3000 to 33000 nM for the second.

First: Cc1cn2nc(-c3cc(=O)n4cc(N5C[C@@H](C)N[C@@H](C)C5)ccc4n3)cc2c(C)n1 [compound 131, 7-[(3R,5S)-3,5-dimethylpiperazin-1-yl]-2-(4,6-dimethylpyrazolo[1,5-a]pyrazin-2-yl)-4H-pyrido[1,2-a]pyrimidin-4-one]
Second: Cc1nc2cc(-c3cc(=O)n4cc(N5CCN[C@@H](C)C5)ccc4n3)ccc2s1 [compound 135, 2-(2-methyl-1,3-benzothiazol-5-yl)-7-[(3S)-3-methylpiperazin-1-yl]-4H-pyrido[1,2-a]pyrimidin-4-one]
The IC50 of the first is higher: 3000 to 33000 nM for the first, 1000 to 3000 nM for the second.

Compared with `Cc1nc2ccc(-c3cc(=O)n4cc(N5CCNCC5)ccc4n3)cc2o1` [compound 133, 2-(2-methyl-1,3-benzoxazol-6-yl)-7-(piperazin-1-yl)-4H-pyrido[1,2-a]pyrimidin-4-one], `Cc1nc2ccc(-c3cc(=O)n4cc(N5CCNC(C)(C)C5)ccc4n3)cc2o1` [compound 194, 7-(3,3-dimethylpiperazin-1-yl)-2-(2-methyl-1,3-benzoxazol-6-yl)-4H-pyrido[1,2-a]pyrimidin-4-one] is higher in IC50: 500 to 1000 nM for the first, 3000 to 33000 nM for the second.

Compared with `Cc1nc2cc(-c3cc(=O)n4cc(N5CCNCC5)ccc4n3)ccc2s1` [compound 136, 2-(2-methyl-1,3-benzothiazol-5-yl)-7-(piperazin-1-yl)-4H-pyrido[1,2-a]pyrimidin-4-one], `Cn1cc2cc(-c3cc(=O)n4cc(N5CCNCC5)ccc4n3)ccc2n1` [compound 137, 2-(2-methyl-2H-indazol-5-yl)-7-(piperazin-1-yl)-4H-pyrido[1,2-a]pyrimidin-4-one] is lower in IC50: 3000 to 33000 nM for the first, 1000 to 3000 nM for the second. The second is the more potent here.

Compared with `C[C@H]1CN(c2ccc3nc(-c4ccc5nn(C)cc5c4)cc(=O)n3c2)CCN1` [compound 138, 2-(2-methyl-2H-indazol-5-yl)-7-[(3S)-3-methylpiperazin-1-yl]-4H-pyrido[1,2-a]pyrimidin-4-one], `C[C@H]1CN(c2ccc3nc(-c4cnn(C)c4)cc(=O)n3c2)CCN1` [compound 191, 7-[(3S)-3-methylpiperazin-1-yl]-2-(1-methyl-1H-pyrazol-4-yl)-4H-pyrido[1,2-a]pyrimidin-4-one] is higher in IC50: 1000 to 3000 nM for the first, 3000 to 33000 nM for the second.

First: Cc1cn2cc(-c3cc(=O)n4cc(N5CCNCC5)ccc4n3)cc(C)c2n1 [compound 141, 2-(2,8-dimethylimidazo[1,2-a]pyridin-6-yl)-7-(piperazin-1-yl)-4H-pyrido[1,2-a]pyrimidin-4-one]
Second: Cc1cn2cc(-c3cc(=O)n4cc(N5CCNCC5)ccc4n3)cc(F)c2n1 [compound 209, 2-(8-fluoro-2-methylimidazo[1,2-a]pyridin-6-yl)-7-(piperazin-1-yl)-4H-pyrido[1,2-a]pyrimidin-4-one]
The IC50 of the first is higher: 1000 to 3000 nM for the first, 100 to 500 nM for the second. The second is the more potent here.

`Cc1csc(-c2cc(=O)n3cc(N4CCN[C@@H](C)C4)ccc3n2)n1` [compound 162, 7-[(3S)-3-methylpiperazin-1-yl]-2-(4-methyl-1,3-thiazol-2-yl)-4H-pyrido[1,2-a]pyrimidin-4-one] and `Cc1csc(-c2cc(=O)n3cc(N4CCNCC4)ccc3n2)n1` [compound 163, 2-(4-methyl-1,3-thiazol-2-yl)-7-(piperazin-1-yl)-4H-pyrido[1,2-a]pyrimidin-4-one] fall in the same range of IC50: 3000 to 33000 nM for the first, 3000 to 33000 nM for the second.

`Cc1cn(-c2cc(=O)n3cc(N4CCNCC4)ccc3n2)cn1` [compound 179, 2-(4-methyl-1H-imidazol-1-yl)-7-(piperazin-1-yl)-4H-pyrido[1,2-a]pyrimidin-4-one] and `Cn1cc(-c2cc(=O)n3cc(N4CCNCC4)ccc3n2)cn1` [compound 192, 2-(1-methyl-1H-pyrazol-4-yl)-7-(piperazin-1-yl)-4H-pyrido[1,2-a]pyrimidin-4-one] fall in the same range of IC50: 3000 to 33000 nM for the first, 3000 to 33000 nM for the second.

With `COc1cnc(-c2cc(=O)n3cc(N4CCNCC4)ccc3n2)cc1OC` [compound 199, 2-(4,5-dimethoxypyridin-2-yl)-7-(piperazin-1-yl)-4H-pyrido[1,2-a]pyrimidin-4-one] the IC50 was 3000 to 33000 nM.

— patent publication US11382918B2, “Methods for treating Huntington's Disease” (PTC Therapeutics, Inc., priority 2017, dated 2022)
